Source: article PMC10812672, “Short Antimicrobial Peptide Derived from the Venom Gland Transcriptome of Pamphobeteus verdolaga Increases Gentamicin Susceptibility of Multidrug-Resistant Klebsiella pneumoniae” (Antibiotics, 2023)
Ends that are not written are not given here.

Assays:
[1] = test system: E. coli ATCC® 25922; assay type: cell-based, Escherichia coli
Description: (§1) The nine AMPs identified in the initial screening were evaluated at concentrations between 1.56–200 µM, against E. coli ATCC® 25922, S. aureus ATCC® 29213, E. faecalis ATCC® 49532, P. aeruginosa ATCC® 9027, and K. pneumoniae ATCC® BAA-1705 (Supplementary Figures S2–S6). […] Only PvAMP66 and PvAMP172 reached the MBC for S. aureus at 50 µM and 100 µM, respectively (Table 2).
(§2) The evaluation of the antimicrobial activity of the peptides was conducted using the CLSI’s broth microdilution method for bacterial susceptibility testing. For the screening phase, peptides were evaluated at a single 30 μM concentration, in triplicate and in three independent assays, against the E. coli ATCC® 8739, E. coli ATCC® 25922, S. aureus ATCC® 6538, or S. aureus ATCC® 29213 reference USP and CLSI strains. For the determination of MIC, MBC, or IC50, peptides or antibiotics were evaluated in concentrations between 1.56–200 µM. These evaluations were conducted in triplicate and in three independent assays, against the E. coli ATCC® 25922, S. aureus ATCC® 29213, E. faecalis ATCC® 49532, P. aeruginosa ATCC® 9027, and K. pneumoniae ATCC® BAA-1705, or the clinically isolated MDR strain. In detail, 1 mL of a glycerol stock solution of the ATCC® or clinically isolated bacterial strain was added to 9 mL of Mueller-Hinton Broth and incubated for 18 h, 180 rpm and 37 °C (Incubator 1000, Heidolph Instruments, Schwabach, Germany). After the incubation, 1 mL of the previous solution was transferred to a new recipient containing 9 mL of fresh Mueller-Hinton broth and incubated for 4 h, 180 rpm and 37 °C (Incubator 1000, Heidolph Instruments, Schwabach, Germany). During the second incubation, the peptides or the antibiotics were dissolved in PBS pH 7.20 in concentrations between 19.53–2500 µM (MC5 Micro Balance, Sartorius AG, Göttingen, Germany). An amount of 10 µL of either peptide or antibiotic was dispensed in triplicate in 96-well flat bottom culture plates, along with 10 µL of PBS (Negative activity control), BTM-P1 (Positive activity control), or 10 µL of Mueller-Hinton broth (Blank); then, 110 µL of Mueller-Hinton broth was poured in all wells. Following this, the bacteria were suspended in Mueller-Hinton broth up to a concentration of approximately 1.50 × 10^8 CFU/mL, as measured by optical density at 600 nm between 0.06 to 0.11 (0.5 McFarland standard), in a Multiskan SkyHigh spectrophotometer (ThermoFisher Scientific, Waltham, MA, USA). Amounts of 5 µL of the 1.50 × 10^8 CFU/mL suspension were added to each well (except for the blank) for a final well concentration of approximately 6 × 10^6 CFU/mL. The plate was incubated for 24 h at 37 °C (BE 500, Memmert GmbH, Büchenbach, Germany) and optical density was measured at 600 nm in a Multiskan SkyHigh spectrophotometer (ThermoFisher Scientific, Waltham, MI, USA). Following the measurement of optical density, plates were visually inspected to determine the MIC. Subsequently, 100 µL of the concentration associated to the MIC and 100 µL of the next higher concentration were added to Petri dishes containing Mueller-Hinton Agar. The dishes were then incubated for 24 h at 37 °C (BE 500, Memmert GmbH, Büchenbach, Germany). After incubation, the Petri dishes were visually inspected, and the MBC was determined in the absence of growth. IC50 values were interpolated from regressions with correlation values above 0.70. Growth inhibition percentages were calculated as follows: Growth inhibition %=1−AbsPEPTIDE or ANTIBIOTIC−Median AbsBLANK/Median AbsPBS−Median AbsBLANK×100

[2] = test system: P. aeruginosa ATCC® 9027; assay type: cell-based, Pseudomonas aeruginosa
Description: as §1, §2

[3] = test system: Gram-positive and Gram-negative bacteria representative of the ESKAPE group; assay type: cell-based; details: average over Gram-positive and Gram-negative ATCC strains of the ESKAPE group
Description: as §1
The evaluation of the antimicrobial activity of the peptides was conducted using the CLSI’s broth microdilution method for bacterial susceptibility testing. For the screening phase, peptides were evaluated at a single 30 μM concentration, in triplicate and in three independent assays, against the E. coli ATCC® 8739, E. coli ATCC® 25922, S. aureus ATCC® 6538, or S. aureus ATCC® 29213 reference USP and CLSI strains. […] Following this, the bacteria were suspended in Mueller-Hinton broth up to a concentration of approximately 1.50 × 10^8 CFU/mL, as measured by optical density at 600 nm between 0.06 to 0.11 (0.5 McFarland standard), in a Multiskan SkyHigh spectrophotometer (ThermoFisher Scientific, Waltham, MA, USA). […] The plate was incubated for 24 h at 37 °C (BE 500, Memmert GmbH, Büchenbach, Germany) and optical density was measured at 600 nm in a Multiskan SkyHigh spectrophotometer (ThermoFisher Scientific, Waltham, MI, USA). […]

[4] = 1.56–200 µM, 24 h 37 °C, visual inspection, triplicate, three independent assays

Substance: WKKIKKFF-NH2 [PvAMP66]
- MIC [1, 4]: 50 µM
- IC50 ([1]; growth inhibition OD600, interpolated from regression, 95% confidence interval in parentheses, read-out: IC50): 38.3 µM
- MBC ([1]; plating on Mueller-Hinton agar, 24 h 37 °C, absence of growth): 50 µM
- MIC [2, 4]: 12.5 µM
- IC50 ([2]; growth inhibition OD600, 95% confidence interval in parentheses): 12.7 µM
- MBC ([2]; plating on Mueller-Hinton agar, absence of growth): 12.5 µM
- average MIC [3]: 46.87 µM
